According to ChEMBL document CHEMBL1909046, “DrugMatrix in vitro pharmacology data”:

tested on: not listed separately; experiment: DRUGMATRIX: Phosphodiesterase PDE3 enzyme inhibition (substrate: [3H]cAMP + cAMP); assay type: tissue-based, Homo sapiens; details: platelet; Not Active = under 50% inhibition at 10 µM

| SMILES | IC50 | Ki |
| --- | --- | --- |
| CC[C@H](C)[C@@H](CO[C@@H](Cc1ccccc1)C(=O)N[C@@H](CCS(C)(=O)=O)C(=O)OC(C)C)NC[C@@H](N)CS | Not Active | Not Active |
| CCN1CCCC1CNC(=O)c1cc(S(N)(=O)=O)ccc1OC (centres undefined) [SULPIRIDE] | Not Active | Not Active |
| CC[C@H](C)C(=O)O[C@H]1CCC=C2C=C[C@H](C)[C@H](CC[C@@H]3C[C@@H](O)CC(=O)O3)[C@H]21 [MEVASTATIN] | Not Active | Not Active |
| C[C@]12CCC(=O)C[C@@H]1CC[C@@H]1[C@@H]2CC[C@]2(C)[C@@H](O)CC[C@@H]12 [STANOLONE] | Not Active | Not Active |
| CC(N)C12CC3CC(CC(C3)C1)C2 (centres undefined) [RIMANTADINE] | Not Active | Not Active |
| Cc1cccc(C)c1NC(=O)C(C)N (centres undefined) [TOCAINIDE] | Not Active | Not Active |

tested on: not listed separately; experiment: DRUGMATRIX: Sodium/nucleoside co-transporter radioligand binding (ligand: nitrobenzylthioinosine); assay type: cell membranes, Cavia porcellus, Dunkin-Hartley, Cerebral cortex, Membrane; details: Not Active = under 50% inhibition at 10 µM

| SMILES | IC50 | Ki |
| --- | --- | --- |
| CC[C@H](C)[C@@H](CO[C@@H](Cc1ccccc1)C(=O)N[C@@H](CCS(C)(=O)=O)C(=O)OC(C)C)NC[C@@H](N)CS | Not Active | Not Active |
| CCN1CCCC1CNC(=O)c1cc(S(N)(=O)=O)ccc1OC (centres undefined) [SULPIRIDE] | Not Active | Not Active |
| CC[C@H](C)C(=O)O[C@H]1CCC=C2C=C[C@H](C)[C@H](CC[C@@H]3C[C@@H](O)CC(=O)O3)[C@H]21 [MEVASTATIN] | Not Active | Not Active |
| C[C@]12CCC(=O)C[C@@H]1CC[C@@H]1[C@@H]2CC[C@]2(C)[C@@H](O)CC[C@@H]12 [STANOLONE] | Not Active | Not Active |
| CC(N)C12CC3CC(CC(C3)C1)C2 (centres undefined) [RIMANTADINE] | Not Active | Not Active |
| Cc1cccc(C)c1NC(=O)C(C)N (centres undefined) [TOCAINIDE] | Not Active | Not Active |

biological target: T1, Receptor-type tyrosine-protein phosphatase C (Homo sapiens, UniProt P08575); experiment: not given; design: species or system Escherichia coli; details: not given;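 note: inhibition of CD45 enzyme activity measured using DiFMUP as substrate; in other assays of this panel Not Active means under 50% inhibition at 10 µM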
T1 sequence (P08575 whole entry): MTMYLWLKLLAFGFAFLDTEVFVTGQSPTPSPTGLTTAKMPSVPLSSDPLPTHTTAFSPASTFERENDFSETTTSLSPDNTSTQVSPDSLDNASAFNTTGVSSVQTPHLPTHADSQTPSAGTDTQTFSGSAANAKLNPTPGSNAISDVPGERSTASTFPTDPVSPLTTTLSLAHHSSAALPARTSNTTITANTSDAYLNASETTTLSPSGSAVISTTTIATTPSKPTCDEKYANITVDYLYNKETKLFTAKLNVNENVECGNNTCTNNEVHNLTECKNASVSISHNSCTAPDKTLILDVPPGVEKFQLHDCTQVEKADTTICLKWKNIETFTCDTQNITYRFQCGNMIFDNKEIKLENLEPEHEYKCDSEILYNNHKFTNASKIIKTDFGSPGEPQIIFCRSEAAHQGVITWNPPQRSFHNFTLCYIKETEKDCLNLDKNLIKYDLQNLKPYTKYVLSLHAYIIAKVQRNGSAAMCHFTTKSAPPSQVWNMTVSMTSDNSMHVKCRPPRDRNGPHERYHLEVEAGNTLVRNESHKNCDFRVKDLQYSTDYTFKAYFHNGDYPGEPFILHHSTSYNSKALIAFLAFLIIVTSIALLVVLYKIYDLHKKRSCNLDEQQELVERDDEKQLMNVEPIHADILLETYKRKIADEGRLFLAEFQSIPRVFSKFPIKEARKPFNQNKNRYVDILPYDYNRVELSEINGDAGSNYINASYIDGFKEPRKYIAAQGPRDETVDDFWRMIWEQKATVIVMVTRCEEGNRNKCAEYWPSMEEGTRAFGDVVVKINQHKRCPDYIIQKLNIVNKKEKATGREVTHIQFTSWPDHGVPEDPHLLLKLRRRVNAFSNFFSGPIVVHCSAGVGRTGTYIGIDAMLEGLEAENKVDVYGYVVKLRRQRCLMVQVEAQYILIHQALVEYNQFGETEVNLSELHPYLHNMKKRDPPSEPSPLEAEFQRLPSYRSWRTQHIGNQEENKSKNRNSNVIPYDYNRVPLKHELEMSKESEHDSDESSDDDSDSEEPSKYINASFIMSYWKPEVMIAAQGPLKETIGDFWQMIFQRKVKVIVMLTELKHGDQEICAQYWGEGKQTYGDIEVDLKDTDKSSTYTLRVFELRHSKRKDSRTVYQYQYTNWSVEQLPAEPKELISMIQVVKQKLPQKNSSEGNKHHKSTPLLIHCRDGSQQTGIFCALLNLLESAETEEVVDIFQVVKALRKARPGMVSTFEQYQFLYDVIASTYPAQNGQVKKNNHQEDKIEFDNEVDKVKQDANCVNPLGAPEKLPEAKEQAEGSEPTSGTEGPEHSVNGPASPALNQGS

| SMILES | IC50 |
| --- | --- |
| CC[C@H](C)[C@@H](CO[C@@H](Cc1ccccc1)C(=O)N[C@@H](CCS(C)(=O)=O)C(=O)OC(C)C)NC[C@@H](N)CS | Not Active |
| CCN1CCCC1CNC(=O)c1cc(S(N)(=O)=O)ccc1OC (centres undefined) [SULPIRIDE] | Not Active |
| CC[C@H](C)C(=O)O[C@H]1CCC=C2C=C[C@H](C)[C@H](CC[C@@H]3C[C@@H](O)CC(=O)O3)[C@H]21 [MEVASTATIN] | Not Active |
| C[C@]12CCC(=O)C[C@@H]1CC[C@@H]1[C@@H]2CC[C@]2(C)[C@@H](O)CC[C@@H]12 [STANOLONE] | Not Active |
| CC(N)C12CC3CC(CC(C3)C1)C2 (centres undefined) [RIMANTADINE] | Not Active |
| Cc1cccc(C)c1NC(=O)C(C)N (centres undefined) [TOCAINIDE] | Not Active |

tested on: not listed separately; experiment: DRUGMATRIX: GABAA, Flunitrazepam, Central radioligand binding (ligand: [3H] Flunitrazepam); assay type: cell membranes, Rattus norvegicus, Wistar, Brain, Membrane; details: Not Active = under 50% inhibition at 10 µM

| SMILES | IC50 | Ki |
| --- | --- | --- |
| CC[C@H](C)[C@@H](CO[C@@H](Cc1ccccc1)C(=O)N[C@@H](CCS(C)(=O)=O)C(=O)OC(C)C)NC[C@@H](N)CS | Not Active | Not Active |
| CCN1CCCC1CNC(=O)c1cc(S(N)(=O)=O)ccc1OC (centres undefined) [SULPIRIDE] | Not Active | Not Active |
| CC[C@H](C)C(=O)O[C@H]1CCC=C2C=C[C@H](C)[C@H](CC[C@@H]3C[C@@H](O)CC(=O)O3)[C@H]21 [MEVASTATIN] | Not Active | Not Active |
| C[C@]12CCC(=O)C[C@@H]1CC[C@@H]1[C@@H]2CC[C@]2(C)[C@@H](O)CC[C@@H]12 [STANOLONE] | Not Active | Not Active |
| CC(N)C12CC3CC(CC(C3)C1)C2 (centres undefined) [RIMANTADINE] | Not Active | Not Active |
| Cc1cccc(C)c1NC(=O)C(C)N (centres undefined) [TOCAINIDE] | Not Active | Not Active |

biological target: T2, Interstitial collagenase (Homo sapiens, UniProt P03956); experiment: biochemical; assay type: tissue-based, Rheumatoid synovial fibroblasts; details: not given;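 note: MMP-1 enzyme inhibition assay using a peptide substrate; in other assays of this panel Not Active means under 50% inhibition at 10 µM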
T2 sequence (P03956 whole entry): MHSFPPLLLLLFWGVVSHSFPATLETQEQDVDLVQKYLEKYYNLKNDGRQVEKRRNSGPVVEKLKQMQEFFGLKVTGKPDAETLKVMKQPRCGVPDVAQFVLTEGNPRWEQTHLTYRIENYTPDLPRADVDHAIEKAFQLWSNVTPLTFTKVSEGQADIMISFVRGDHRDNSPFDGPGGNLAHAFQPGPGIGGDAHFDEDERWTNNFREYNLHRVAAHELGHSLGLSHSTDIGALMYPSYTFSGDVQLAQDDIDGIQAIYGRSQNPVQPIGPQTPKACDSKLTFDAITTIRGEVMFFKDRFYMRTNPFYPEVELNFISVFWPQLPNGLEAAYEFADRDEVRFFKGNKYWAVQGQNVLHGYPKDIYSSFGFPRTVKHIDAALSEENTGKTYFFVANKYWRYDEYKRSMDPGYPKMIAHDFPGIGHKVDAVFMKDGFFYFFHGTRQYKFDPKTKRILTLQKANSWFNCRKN

| SMILES | IC50 |
| --- | --- |
| CC[C@H](C)[C@@H](CO[C@@H](Cc1ccccc1)C(=O)N[C@@H](CCS(C)(=O)=O)C(=O)OC(C)C)NC[C@@H](N)CS | Not Active |
| CCN1CCCC1CNC(=O)c1cc(S(N)(=O)=O)ccc1OC (centres undefined) [SULPIRIDE] | Not Active |
| CC[C@H](C)C(=O)O[C@H]1CCC=C2C=C[C@H](C)[C@H](CC[C@@H]3C[C@@H](O)CC(=O)O3)[C@H]21 [MEVASTATIN] | Not Active |
| C[C@]12CCC(=O)C[C@@H]1CC[C@@H]1[C@@H]2CC[C@]2(C)[C@@H](O)CC[C@@H]12 [STANOLONE] | Not Active |
| CC(N)C12CC3CC(CC(C3)C1)C2 (centres undefined) [RIMANTADINE] | Not Active |
| Cc1cccc(C)c1NC(=O)C(C)N (centres undefined) [TOCAINIDE] | Not Active |

biological target: T3, Leukotriene C4 synthase (Cavia porcellus, UniProt A6XA80); experiment: biochemical; assay type: tissue-based, Lung; details: not given;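 note: enzyme inhibition assay of leukotriene C4 synthase, using LTA4 as the substrate; in other assays of this panel Not Active means under 50% inhibition at 10 µM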
T3 sequence (A6XA80 whole entry): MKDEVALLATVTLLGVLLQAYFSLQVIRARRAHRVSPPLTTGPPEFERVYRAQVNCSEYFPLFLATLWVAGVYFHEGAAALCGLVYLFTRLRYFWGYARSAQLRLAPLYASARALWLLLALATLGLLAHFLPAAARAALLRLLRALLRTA

| SMILES | IC50 |
| --- | --- |
| CC[C@H](C)[C@@H](CO[C@@H](Cc1ccccc1)C(=O)N[C@@H](CCS(C)(=O)=O)C(=O)OC(C)C)NC[C@@H](N)CS | Not Active |
| CCN1CCCC1CNC(=O)c1cc(S(N)(=O)=O)ccc1OC (centres undefined) [SULPIRIDE] | Not Active |
| CC[C@H](C)C(=O)O[C@H]1CCC=C2C=C[C@H](C)[C@H](CC[C@@H]3C[C@@H](O)CC(=O)O3)[C@H]21 [MEVASTATIN] | Not Active |
| C[C@]12CCC(=O)C[C@@H]1CC[C@@H]1[C@@H]2CC[C@]2(C)[C@@H](O)CC[C@@H]12 [STANOLONE] | Not Active |
| CC(N)C12CC3CC(CC(C3)C1)C2 (centres undefined) [RIMANTADINE] | Not Active |
| Cc1cccc(C)c1NC(=O)C(C)N (centres undefined) [TOCAINIDE] | Not Active |
